These results are taken from patent publication US10758536B2, “Method for treating shingles with N-methanocarbathymidine (N-MCT)” (priority 2015, dated 2020).

Structures are written as SMILES. “Also recorded” adds a separate entry of the source.

Assay [1] relates to VZV. The assay can be described thus: Skin organ culture Assays 4 and 5: topical ointment vehicles. The assay is classed as cell-based, varicella-zoster virus. From the text: Another objective of the invention was to test N-MCT at 0.5% in a variety of topical formulations in the SOC assay. The purpose was to determine the optimal topical formulation for N-MCT in full-thickness human skin. Human fetal skin was purchased from ABR and delivered by overnight courier on wet ice. The tissue was cleaned, disinfected in betadine and 70% ethanol, then cut into pieces approximately 1-cm^2. Each piece was inoculated with VZV-BAC-Luc strain that expresses firefly luciferase. Approximately 3 hours after inoculation, the pieces of skin were placed in NetWells above tissue culture medium and incubated overnight. The next day (Day 1) each piece of skin was soaked in D-luciferin for 45 min, and then scanned in the IVIS-50 instrument to measure Total Flux, which is a correlate of VZV pfu. The negative control group was not treated with drug or vehicle. The positive control drug treatment began on Day 1 by placing the skin, in NetWells, over medium containing 0.1 μg/mL N-MCT (see Table 5 below). The ointments were formulated with N-MCT by adding dry powder to the vehicle on a glass slab, then mixing thoroughly with a metal spatula. The ointments were warmed to 37° C. before spreading on the skin pieces with a Dacron swab. […] The virus yield in each piece of skin was calculated by dividing the Total Flux measured on Day 5 by Day […]

Assay [2] has as its system VZV. The assay can be described thus: Skin organ culture topical Assay 3: vehicle comparison. The format is cell-based, varicella-zoster virus. On the procedure:
Place 36 mL deionized sterile water into small beaker with stir bar. Slowly waft 900 mg of carbopol (980 NF, Lot # CCONLCC013, Lubrizol Corp) into water, avoiding clumps. Add equal volume N-MCT in 20% hydroxypropyl-β-cyclodextrin (Sigma) at 2× to reach the desired concentration. Add 2 drops NaOH (18% solution) to attain a pH near 5.0. Store at 4° C. The 0.5% cidofovir gel was made in a similar manner except that cidofovir was dissolved in water. The DMSO vehicle was prepared by adding a 2% DMSO solution in water to the carbopol suspension at a 1:1 ratio. Hydroxypropyl-β-cyclodextrin (HPBCD) was prepared by mixing 5.0 g with 20 mL sterile water. Stock solution of N-MCT was prepared by dissolving 90 mg N-MCT in 9 mL 20% HPBCD and sonicating for 1 min.
This assay compared two vehicles, 1% DMSO and 10% hydroxypropyl-β-cyclodextrin (HPBCD) in carbopol gel, and 0.5% N-MCT in either vehicle. Refer to Assay #3 in Table 4 above. Each group was treated on Days 1-4 and scanned on Day 5, which is the typical assay protocol. The skin specimens were then cultured without drug or vehicle for another 6 days (scans on Day 7 and Day 11) to observe virus rebound. VZV yield was reduced in both Vehicle groups during the treatment phase, and then rebounded. This was likely due to the effects of the slightly acidic carbopol gel. There was little difference between the two vehicles. […] Importantly, there was no rebound in the groups treated with N-MCT. In fact, VZV yield continued to decrease after the treatment stopped.

The subject of assay [3] is VZV. The assay can be described thus: Delayed N-MCT treatment in SCID-Hu mice. The format is in vivo, varicella-zoster virus. The following applies: 50 mg/kg p.o. BID; treatment delayed 3 or 7 days after VZV infection. On the procedure:
Statistical analysis: Data were analyzed using Student's t test or one-way ANOVA and Dunnett's Multiple Comparison post hoc tests. Calculations were made using GraphPad Prism 5.02 for Windows (GraphPad Software, San Diego, Calif., www.graphpad.com). A p<0.05 was considered statistically significant.

In assay [4] the test system is VZV. The assay can be described thus: SCID-Hu mouse model of VZV replication, oral dose range. The assay is classed as in vivo, varicella-zoster virus. The protocol:
SCID-hu mice with human skin xenografts were infected intradermally with VZV and treated orally twice daily with vehicle, PFA (positive control), or N-MCT at 5, 10, 20, 25, 50, or 100 mg/kg/day. Virus spread was measured daily by in vivo bioluminescence imaging (IVIS). […] The results were analyzed for statistical significance by ANOVA and Dunnett's post hoc test of multiple comparisons (GraphPad Prism).

Regarding `Cc1cn([C@]23C[C@H](O)[C@@H](CO)[C@@H]2C3)c(=O)[nH]c1=O` [N-MCT, N-methanocarbathymidine], the “effectiveness as topical formulation in SOC model” value in assay [1] (0.5% N-MCT in ointments, daily, scan Day 5) was “highly effective”. Moreover, in assay [1] (no treatment after Day 5, groups treated with N-MCT), the “virus yield on Day 10 after treatment stopped, fold less” value is listed as 100 fold. Also, the VZV yield result in assay [2] (0.5% N-MCT in 1% DMSO or 10% HPBCD carbopol gel, Days 1-4) was “substantial decrease”. In addition, the “cyclodextrin preparation compared with DMSO prep” value in assay [2] (0.5% N-MCT in 10% HPBCD vs 1% DMSO carbopol) is “slightly more effective”. In addition, the “VZV rebound after treatment stopped” value in assay [2] (scans on Day 7 and Day 11, no drug after Day 5) is “no rebound”. The “effectiveness in vivo when treatment is delayed” value in assay [3] is “effective; also recorded: can be delayed up to one week after infection”. For the same compound, the “VZV spread in mouse model, effectiveness” value in assay [4] (5-100 mg/kg/day p.o. BID) is recorded as “prevents VZV spread; also recorded: effective”. For the same compound, the “VZV yield and growth rates compared to vehicle” value in assay [4] (all doses, N-MCT 5-100 mg/kg/day BID, p<0.0001, ANOVA and Dunnett) was “significantly reduced”. Besides, the “doses more effective than control antiviral compounds (PAA, PFA, cidofovir)” value in assay [4] (mouse model of virus replication) is recorded as greater than 10 mg/kg/day. Further, in assay [4] (p.o. BID, SCID-Hu mice), the optimal dose result is on record as “approximately 20 mg/kg/day”.
